# Laboratory results published in patent US11844771B2, “Methods of treating acute respiratory distress syndrome using colchicine” (INSTITUT DE C[…] MONTREAL, priority 2021, dated 2023).
# Marks after values point to notes of the source that are not given here.
# Columns and labels:
# [1] = system: oleic acid-induced ALI; experiment: Oleic acid-induced ALI rat model: lung edema and arterial blood gas; format: in vivo
# Experimental: (§1) Animal model and colchicine administration. Male Wistar rats weighing 250-300 g were purchased from Charles River, St. Constant, Québec. They were divided in three groups: Sham+placebo (n=8), oleic acid+placebo (n=8) and oleic acid+colchicine (n=8). Oleic acid (150 mg/kg in 0.3 cc) was prepared daily as a mixture with 0.1% bovine serum albumin (BSA) dissolved in distilled water, stored and protected from light at room temperature. Colchicine (1 mg/kg) or distilled water (placebo) was administered by daily gavage (in a volume up to 2 ml/kg) for three days before the induction of the ALI model. On the beginning of the fourth day a last forth dose of colchicine or placebo was administered and rats immediately injected via a jugular vein cannula with oleic acid or with 0.1% BSA. There was no death in the sham group. There was one death in the oleic acid+placebo group 3 hours after injection of oleic acid and prior to any measurement.
# There was one surgical death in oleic acid+colchicine treatment by laceration of the jugular vein, prior to injection of oleic acid. Oleic acid was administered under ketamine/xylazine anesthesia by slow bolus injection over 30 seconds and the catheter was flushed with 0.3 ml of 0.1% BSA before and after injection. Four hours later, the animals were studied. Conscious unrestrained respiratory parameters were obtained by whole body plethysmography (Emka technologies). Rats were then anesthetized with 2.5% isoflurance and 100% oxygen (1 L/min) administered with a nose cone/face mask for a duration of 5 minutes before terminal exsanguination. […] Cytokines measurements were assessed with serum isolated with serum clot activator tubes.
# (§2) The lungs were excised for analysis: the left lung was cannulated and perfusion-fixed with 10% buffered formalin for histology and immunohistochemistry. […] Pulmonary edema was measured from the ratio of total divided by dry weight of the right lung. Total weight, including water, was measured and lung tissue was dried in an oven at 60° C. for 5 days and reweighed as dry weight.
# [2] = system: oleic acid-induced ALI; experiment: Oleic acid-induced ALI rat model: conscious respiratory parameters by whole body plethysmography; format: in vivo; settings: OA + colchicine 1 mg/kg gavage, 4 hours after oleic acid, mean ± SEM
# Experimental: as §1
# There was one surgical death in oleic acid+colchicine treatment by laceration of the jugular vein, prior to injection of oleic acid. Oleic acid was administered under ketamine/xylazine anesthesia by slow bolus injection over 30 seconds and the catheter was flushed with 0.3 ml of 0.1% BSA before and after injection. Four hours later, the animals were studied. […] Cytokines measurements were assessed with serum isolated with serum clot activator tubes.
# [3] = system: oleic acid-induced ALI; experiment: Oleic acid-induced ALI rat model: blood cell counts and biochemistry; format: in vivo; settings: OA + colchicine 1 mg/kg gavage, 4 hours after oleic acid, mean ± SEM
# Experimental: as §1
# (§3) There was one surgical death in oleic acid+colchicine treatment by laceration of the jugular vein, prior to injection of oleic acid. Oleic acid was administered under ketamine/xylazine anesthesia by slow bolus injection over 30 seconds and the catheter was flushed with 0.3 ml of 0.1% BSA before and after injection. Four hours later, the animals were studied. Conscious unrestrained respiratory parameters were obtained by whole body plethysmography (Emka technologies). Rats were then anesthetized with 2.5% isoflurance and 100% oxygen (1 L/min) administered with a nose cone/face mask for a duration of 5 minutes before terminal exsanguination. 2 ml of arterial blood was collected through the thoracic aorta into a syringe containing lyophilized heparin for arterial blood gas assessment. The remaining blood was collected into EDTA Lavendar tubes for complete blood count and flow cytometry. Cytokines measurements were assessed with serum isolated with serum clot activator tubes.
# [4] = system: oleic acid-induced ALI; experiment: Oleic acid-induced ALI rat model: lung histology and immunohistology (HPS, MPO, Cit-H3); format: in vivo; settings: colchicine 1 mg/kg gavage, 4 hours after oleic acid
# Experimental: as §1
# Lung histology and immunohistology. All histological and immunohistological procedures were performed by the same person blinded to treatment assignment. The left lung was cannulated and perfused with 10% formalin PBS-buffered solution and fixed for 5 days. Tissues were dehydrated by incubating in a series of solutions with an increased ethanol content (70, 95, and 100%), followed by xylene, and embedded in paraffin. The specimens were cut into 6-μm sections, mounted on charged slides and processed with hematoxylin phloxine saffron (HPS) staining.
# Immunohistological procedures were initiated by incubating the slides in citrate antigen retrieval (pH 6.0) and endogenous peroxidase blocking (3% hydrogen peroxide). Sections were then blocked by incubating in PBS containing 10% normal goat serum (same species as secondary antibody) for 60 minutes. Slides were incubated with a rabbit polyclonal anti-myeloperoxidase (MPO, Pa5-16672; ThermoFisher, MA USA) for neutrophil detection, with a rabbit polyclonal anti-histone H3 citrulline R2+R8+R17, (Cit-H3, ab5103; ABCAM, Cambridge, United Kingdom) for NETosis and primary antibodies were omitted for negative controls. After washing, sections were incubated with a biotinylated secondary antibody (Vector Laboratories, Burlingame, Calif.) for 30 minutes, washed, then incubated with avidin-biotin complex (ABC kit) and visualized using diaminobenzidine substrate (Vector Laboratories) (27-29).
# The HPS slides were scanned to get a picture of the whole left lung (Super coolscan 5000; Nikon, Tokyo Japan). Using a brightfield microscope (BX45, Olympus, Richmond Hill, ON, Canada), images were acquired under 200× magnification on the most damaged/altered regions, acquiring 5 fields per slide for the HPS staining and 10 fields per slide for IHC (MPO and Cit-H3) staining. For the HPS staining, the following analyses were performed: 1) thickness of alveolar membranes, 2) percentage (%) of altered lung tissue, and 3) injury score of the lungs.
# To assess the thickness of alveolar membranes, 20 measurements per field were performed (corresponding to 100 measurements per slide) and were expressed as the mean thickness (μm) of the alveolar membranes. A morphometric analysis has been performed to assess the percentage of altered lung tissue over total lung area (excluding trachea, major bronchi, and blood vessels >700 μm diameter). To evaluate lung injury, we used an adapted version of the standardized histology score from the American Thoracic Society Documents (30). […]
# [5] = system: oleic acid-induced ALI; experiment: Oleic acid-induced ALI rat model: serum cytokine quantification; format: in vivo; settings: 4 hours after oleic acid
# Experimental: as §1, §3
# Serum cytokine quantification. Quantitative determination of serum IFN-γ, IL-1β, IL-4, IL-5, IL-6, KC/GRO, IL-10, IL-13, and TNF-α was done using the electrochemiluminescence-based Meso Scale Discovery (MSD) platform (Rockville, Md., USA). Proteins levels were measured in a multiplex assay using the V-PLEX Proinflammatory Panel 2 Rat kit (MSD). Samples were diluted 1:5 in proprietary buffer (MSD) and measured. Data were acquired using a MESO QuickPlex SQ 120 plate reader (MSD) and protein concentrations were determined using the MSD Discovery Workbench 4.0 analysis software. All values reported are between the lower and the upper limits of quantification of the kit. Quantitative determination of serum Cit-H3 was measured by a commercially available ELISA kit (Cayman Chemical, 501620, Ann Arbor, Mich., USA).
# [6] = system: blood leukocytes; experiment: In vitro LPS challenge of blood leukocytes from treated rats (CD11b flow cytometry); format: in vivo; settings: rat whole blood at sacrifice, LPS 500 ng/mL in vitro, 30 minutes
# Experimental: as §1
# In vitro LPS challenge of blood leukocytes. Whole blood samples collected on EDTA-coated tubes were incubated, or not, with LPS (500 ng/mL) for 30 minutes at 37° C. […] Data were analyzed on Diva software version 8.0.1 (BD Biosciences).
# [7] = system: blood leukocytes; experiment: Leukocyte immunophenotyping of whole blood by flow cytometry; format: in vivo, rat; settings: 4 hours after oleic acid
# Experimental: as §1
# Leukocyte immunophenotyping. Using reverse pipetting, 100 μl of whole blood collected on EDTA-coated tubes were incubated with anti-CD32 to prevent FC-mediated non-specific binding according to the manufacturer's instructions. The panel of antibodies as well as the gating strategy were inspired by Barnett-Vanes and al., PLoS One 2016; 11:e0142520.
# Briefly, a panel of 11 antibodies (Table 1) was used to identify the neutrophils (CD45^+/SSChi/His48^+), the monocytes (CD45^+/SSC^lo/His48 ^hi or lo/CD43^hi or lo), the B lymphocytes (CD45^+/SSC^lo/CD45R^−B220^+), the T lymphocytes (CD45^+/SSC^lo/CD3^+/CD4^+ or CD8^+), and the natural killer cells (CD45^+/SSC^lo/CD161a^+). The whole blood samples were incubated with the antibodies for 20 minutes at room temperature and the BD Pharm Lyse solution was then added for 10 minutes to lyse the erythrocytes. Samples were stored at 4° C. until analysis by flow cytometry (LSRII BD Biosciences). Accucount (Spherotech) was added to establish a cell count per μl of blood. Data were analyzed on Diva software version 8.0.1 (BD Biosciences).
# [8] = system: oleic acid-induced ALI; experiment: Lung tissue mRNA expression of 27 markers of inflammation and injury by RT-qPCR; format: in vivo; settings: rat lung, 4 hours after oleic acid; colchicine versus OA control
# Experimental: Animal model and colchicine administration. Male Wistar rats weighing 250-300 g were purchased from Charles River, St. Constant, Québec. They were divided in three groups: Sham+placebo (n=8), oleic acid+placebo (n=8) and oleic acid+colchicine (n=8). Oleic acid (150 mg/kg in 0.3 cc) was prepared daily as a mixture with 0.1% bovine serum albumin (BSA) dissolved in distilled water, stored and protected from light at room temperature. Colchicine (1 mg/kg) or distilled water (placebo) was administered by daily gavage (in a volume up to 2 ml/kg) for three days before the induction of the ALI model. […]
# as §2
# Tissue homogenization, RNA extraction, RT-PCR, and real-time PCR. […] RNA integrity and quantity were assessed using a 2100 Bioanalyzer Instrument (Agilent, Santa Clara, Calif.). […] The geometric mean of housekeeping genes ACTB, GAPDH, and XBP1 was used as an internal control to normalize the variability in expression levels which were analyzed using the 2^−ΔΔCT method. […]
# [9] = colchicine 1 mg/kg gavage, 4 hours after oleic acid, versus OA control
# [10] = rat left lung, HPS staining, mean±SEM
compound,measurement,setting,value
COc1cc2c(c(OC)c1OC)-c1ccc(OC)c(=O)cc1[C@@H](NC(C)=O)CC2 [colchicine],PaO2 (equivalent to PaO2/FiO2),"[1]; colchicine 1 mg/kg daily gavage, 4 doses before oleic acid 150 mg/kg iv, 4 hours later, 100% FiO2, mean±SEM",246±45 mmHg
same,"lung edema (pulmonary edema, total/dry lung weight ratio)",[1]; [9],reduced
same,respiratory acidosis,[1]; [9],reduced
same,Peek expiratory flow,[2],13.19 ± 1.41
same,Peek inspiratory flow,[2],17.75 ± 2.72 mL/s
same,Calcium,[3]; corrected for pH,1.40 ± 0.01 mmol/L
same,Bicarbonate,[3],27.6 ± 0.8 mmol/L
same,Lactate,[3],2.4 ± 0.53 mmol/L
same,Leukocytes,[3],4.90 ± 0.68** 10^9/L
same,Neutrophils,[3],2.71 ± 0.36** 10^9/L
same,relative reduction of histological lung injury (injured area) versus oleic acid ALI group,"[4]; rat left lung, HPS staining",61%
same,Mean alveolar wall thickness,[4]; [10],7.8±1.1 μm
same,lung injury score (maximum score of 70),[4]; [10],28.7±5.0
same,proportion of injured area (altered lung tissue over total lung area),[4]; [10],9.6±3.1%
same,"NETosis (Cit-H3 immunostaining intensity), increase over basal level","[4]; rat lung, oleic acid alone 63%",35%
same,"other cytokines measured: Cit-H3, INF-γ, IL-10, IL-13, IL-4 and IL-5",[5],no change
same,serum IL-6 level,[5]; colchicine versus OA control,trend towards reduced
same,serum KC/GRO,[5]; colchicine versus OA control,non-significantly reduced
same,serum TNF-α,[5]; colchicine versus OA control,non-significantly reduced
same,response to LPS stimulation (cell surface CD11b MFI) in leukocytes and granulocytes,[6],restored the normal response
same,cell surface CD4 and CD8 on respective lymphocyte sub-populations,[7]; rat blood,normalized
same,lymphocytes counts on flow cytometry,[7]; rat blood,no change
same,neutrophil count on flow cytometry,[7]; rat blood,increase in neutrophils that was significant
same,His48 fluorescence of neutrophils,[7]; unstimulated rat blood,normalized
same,lung tissue mRNA expression of 27 genes involved in inflammatory responses and injury,[8],no individual statistically significant effect
